Data from article PMC5428509, “Irreversible inhibition of BTK kinase by a novel highly selective inhibitor CHMFL-BTK-11 suppresses inflammatory response in rheumatoid arthritis model” (Scientific Reports, 2017).

Tests used:
Experiment in all cases: biochemical
Set-up in all cases: KinomeScan competition binding panel (DiscoveRx), percent of control at 1 uM
Details in all cases: read-out: Percent Control
KIT(V559D) = KIT(V559D) (Homo sapiens, UniProt P10721, V559D)
Outline: (§1)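 KinomeScan technology used to profile binding across a panel of 456 kinases and mutants.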

ERN1 = ERN1 (Homo sapiens, UniProt O75460)
Outline: as §1

PDGFRA = PDGFRA (Homo sapiens, UniProt P16234)
Outline: as §1

IRAK3 = IRAK3 (Homo sapiens, UniProt Q9Y616)
Outline: as §1

PCTK1 = target: T1, PCTK1 (Homo sapiens, UniProt Q00536)
T1 construct: gene CDK16
Outline: as §1

[1] = target: T2, RPS6KA4(Kin.Dom.1-N-terminal) (Homo sapiens, UniProt O75676)
T2 construct: Kin.Dom.1-N-terminal
Outline: as §1

CASK = CASK (Homo sapiens, UniProt O14936)
Outline: as §1

CSNK1G2 = CSNK1G2 (Homo sapiens, UniProt P78368)
Outline: as §1

PIK4CB = target: T3, PIK4CB (Homo sapiens, UniProt Q9UBF8)
T3 construct: gene PI4KB
Outline: as §1

p38-gamma = target: T4, p38-gamma (Homo sapiens, UniProt P53778)
T4 construct: gene MAPK12
Outline: as §1

[2] = target: T5, ABL1(M351T)-phosphorylated (Homo sapiens, UniProt P00519, M351T)
T5 construct: phosphorylated
Outline: as §1

ASK1 = target: T6, ASK1 (Homo sapiens, UniProt Q99683)
T6 construct: gene MAP3K5
Outline: as §1

BRAF = BRAF (Homo sapiens, UniProt P15056)
Outline: as §1

PRKX = PRKX (Homo sapiens, UniProt P51817)
Outline: as §1

[3] = target: EGFR(L747-S752del, P753S) (Homo sapiens, UniProt P00533, DEL747-752/P753S)
Outline: as §1

CDKL1 = CDKL1 (Homo sapiens, UniProt Q00532)
Outline: as §1

LATS1 = LATS1 (Homo sapiens, UniProt O95835)
Outline: as §1

DRAK2 = target: T7, DRAK2 (Homo sapiens, UniProt O94768)
T7 construct: gene STK17B
Outline: as §1

FGFR1 = FGFR1 (Homo sapiens, UniProt P11362)
Outline: as §1

PRKG2 = PRKG2 (Homo sapiens, UniProt Q13237)
Outline: as §1

MEK3 = target: T8, MEK3 (Homo sapiens, UniProt P46734)
T8 construct: gene MAP2K3
Outline: as §1

FGFR2 = FGFR2 (Homo sapiens, UniProt P21802)
Outline: as §1

ACVR2B = ACVR2B (Homo sapiens, UniProt Q13705)
Outline: as §1

ADCK3 = target: T9, ADCK3 (Homo sapiens, UniProt Q8NI60)
T9 construct: gene COQ8A
Outline: as §1

EGFR = EGFR (Homo sapiens, UniProt P00533)
Outline: as §1

Chain of PRKX (P51817 whole entry): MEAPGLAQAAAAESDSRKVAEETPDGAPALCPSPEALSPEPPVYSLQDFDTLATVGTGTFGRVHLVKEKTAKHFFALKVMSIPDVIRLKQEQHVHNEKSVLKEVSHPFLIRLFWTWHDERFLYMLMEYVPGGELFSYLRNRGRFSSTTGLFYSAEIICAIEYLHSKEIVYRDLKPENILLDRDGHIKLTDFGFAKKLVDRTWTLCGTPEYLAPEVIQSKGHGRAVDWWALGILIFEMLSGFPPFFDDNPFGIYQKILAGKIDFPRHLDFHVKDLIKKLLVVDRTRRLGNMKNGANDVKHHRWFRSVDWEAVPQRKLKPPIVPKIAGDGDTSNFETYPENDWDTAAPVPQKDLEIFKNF
Chain of ACVR2B (Q13705 whole entry): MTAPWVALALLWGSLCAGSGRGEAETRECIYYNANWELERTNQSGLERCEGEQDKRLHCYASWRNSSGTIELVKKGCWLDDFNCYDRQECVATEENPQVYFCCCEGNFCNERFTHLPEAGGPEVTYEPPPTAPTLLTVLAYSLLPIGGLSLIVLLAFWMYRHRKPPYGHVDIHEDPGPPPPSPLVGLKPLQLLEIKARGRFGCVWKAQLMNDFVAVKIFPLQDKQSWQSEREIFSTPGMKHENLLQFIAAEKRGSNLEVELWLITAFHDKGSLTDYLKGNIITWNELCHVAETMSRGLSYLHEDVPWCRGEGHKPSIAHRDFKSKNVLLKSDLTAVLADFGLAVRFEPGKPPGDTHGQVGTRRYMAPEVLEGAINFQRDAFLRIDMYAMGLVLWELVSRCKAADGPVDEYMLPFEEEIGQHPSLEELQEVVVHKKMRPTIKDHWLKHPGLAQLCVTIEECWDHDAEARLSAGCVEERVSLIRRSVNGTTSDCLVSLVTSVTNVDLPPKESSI
Chain of FGFR1 (P11362 whole entry): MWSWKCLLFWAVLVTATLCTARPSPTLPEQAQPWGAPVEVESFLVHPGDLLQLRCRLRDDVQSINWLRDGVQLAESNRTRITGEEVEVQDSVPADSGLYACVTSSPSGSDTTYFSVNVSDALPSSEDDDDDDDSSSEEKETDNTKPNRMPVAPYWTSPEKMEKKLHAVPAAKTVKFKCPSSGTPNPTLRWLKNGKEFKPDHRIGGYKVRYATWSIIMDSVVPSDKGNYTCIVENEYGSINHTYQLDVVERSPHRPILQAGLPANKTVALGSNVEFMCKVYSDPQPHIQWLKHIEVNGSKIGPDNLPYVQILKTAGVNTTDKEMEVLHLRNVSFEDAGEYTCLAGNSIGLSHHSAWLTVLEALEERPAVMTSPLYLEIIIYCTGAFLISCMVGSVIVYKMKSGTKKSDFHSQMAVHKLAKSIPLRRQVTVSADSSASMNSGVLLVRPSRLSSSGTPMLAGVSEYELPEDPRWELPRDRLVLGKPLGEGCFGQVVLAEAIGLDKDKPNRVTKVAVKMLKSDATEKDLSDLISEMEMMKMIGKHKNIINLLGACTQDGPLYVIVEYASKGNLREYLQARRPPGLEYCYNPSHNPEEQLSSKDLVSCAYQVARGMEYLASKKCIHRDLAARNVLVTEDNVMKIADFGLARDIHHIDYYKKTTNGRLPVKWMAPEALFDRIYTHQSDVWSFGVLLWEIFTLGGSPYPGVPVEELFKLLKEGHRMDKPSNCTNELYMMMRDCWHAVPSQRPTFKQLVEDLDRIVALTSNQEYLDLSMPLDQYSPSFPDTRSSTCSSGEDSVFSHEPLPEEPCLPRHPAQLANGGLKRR
Chain of EGFR (P00533 whole entry): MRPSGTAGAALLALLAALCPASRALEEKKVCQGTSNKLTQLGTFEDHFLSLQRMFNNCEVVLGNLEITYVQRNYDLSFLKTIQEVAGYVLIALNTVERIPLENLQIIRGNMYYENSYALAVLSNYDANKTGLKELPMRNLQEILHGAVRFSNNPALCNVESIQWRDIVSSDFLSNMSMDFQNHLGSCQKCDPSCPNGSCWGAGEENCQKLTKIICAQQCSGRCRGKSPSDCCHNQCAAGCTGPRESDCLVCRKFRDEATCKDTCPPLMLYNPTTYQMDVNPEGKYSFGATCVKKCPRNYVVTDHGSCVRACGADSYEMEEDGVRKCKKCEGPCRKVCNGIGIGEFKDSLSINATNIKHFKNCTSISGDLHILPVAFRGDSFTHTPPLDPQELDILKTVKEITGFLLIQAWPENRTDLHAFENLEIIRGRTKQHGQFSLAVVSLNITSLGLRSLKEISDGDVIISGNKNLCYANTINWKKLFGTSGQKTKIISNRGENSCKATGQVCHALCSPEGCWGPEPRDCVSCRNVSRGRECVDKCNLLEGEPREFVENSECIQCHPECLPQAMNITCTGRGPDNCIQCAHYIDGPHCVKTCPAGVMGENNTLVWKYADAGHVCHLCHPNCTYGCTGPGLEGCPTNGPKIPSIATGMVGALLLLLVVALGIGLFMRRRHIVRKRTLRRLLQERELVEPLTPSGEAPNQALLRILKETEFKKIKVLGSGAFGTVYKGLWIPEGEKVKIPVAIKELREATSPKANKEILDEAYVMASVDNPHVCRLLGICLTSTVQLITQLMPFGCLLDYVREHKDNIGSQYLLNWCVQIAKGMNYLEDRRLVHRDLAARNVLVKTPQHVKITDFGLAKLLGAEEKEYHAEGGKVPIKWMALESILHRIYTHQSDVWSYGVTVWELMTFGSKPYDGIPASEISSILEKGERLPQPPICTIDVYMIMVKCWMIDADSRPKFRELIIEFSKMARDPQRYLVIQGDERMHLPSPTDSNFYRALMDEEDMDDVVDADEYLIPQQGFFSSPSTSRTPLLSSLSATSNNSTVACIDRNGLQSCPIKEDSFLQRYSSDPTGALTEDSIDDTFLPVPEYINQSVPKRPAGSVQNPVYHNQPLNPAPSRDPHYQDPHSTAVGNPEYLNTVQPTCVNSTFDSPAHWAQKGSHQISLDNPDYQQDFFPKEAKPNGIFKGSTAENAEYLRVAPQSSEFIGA
T7 sequence (O94768 whole entry): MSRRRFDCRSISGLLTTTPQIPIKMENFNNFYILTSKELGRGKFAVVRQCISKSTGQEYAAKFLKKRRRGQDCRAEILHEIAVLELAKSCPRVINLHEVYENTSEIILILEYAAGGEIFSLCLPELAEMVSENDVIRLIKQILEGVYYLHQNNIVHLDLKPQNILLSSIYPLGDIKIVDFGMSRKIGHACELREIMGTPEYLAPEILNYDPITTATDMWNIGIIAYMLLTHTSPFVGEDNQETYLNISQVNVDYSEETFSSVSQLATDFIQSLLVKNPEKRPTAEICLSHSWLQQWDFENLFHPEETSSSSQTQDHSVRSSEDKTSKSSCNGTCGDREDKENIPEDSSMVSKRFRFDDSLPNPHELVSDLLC
T8 sequence (P46734 whole entry): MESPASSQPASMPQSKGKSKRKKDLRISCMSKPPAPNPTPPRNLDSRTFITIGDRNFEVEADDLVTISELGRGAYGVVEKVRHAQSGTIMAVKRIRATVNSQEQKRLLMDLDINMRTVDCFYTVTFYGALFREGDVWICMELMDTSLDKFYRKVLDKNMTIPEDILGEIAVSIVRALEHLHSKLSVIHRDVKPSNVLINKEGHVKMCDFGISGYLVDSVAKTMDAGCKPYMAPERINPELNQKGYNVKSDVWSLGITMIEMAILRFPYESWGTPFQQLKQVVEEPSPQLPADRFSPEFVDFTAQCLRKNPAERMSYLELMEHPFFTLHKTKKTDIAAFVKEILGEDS
T1 sequence (Q00536 whole entry): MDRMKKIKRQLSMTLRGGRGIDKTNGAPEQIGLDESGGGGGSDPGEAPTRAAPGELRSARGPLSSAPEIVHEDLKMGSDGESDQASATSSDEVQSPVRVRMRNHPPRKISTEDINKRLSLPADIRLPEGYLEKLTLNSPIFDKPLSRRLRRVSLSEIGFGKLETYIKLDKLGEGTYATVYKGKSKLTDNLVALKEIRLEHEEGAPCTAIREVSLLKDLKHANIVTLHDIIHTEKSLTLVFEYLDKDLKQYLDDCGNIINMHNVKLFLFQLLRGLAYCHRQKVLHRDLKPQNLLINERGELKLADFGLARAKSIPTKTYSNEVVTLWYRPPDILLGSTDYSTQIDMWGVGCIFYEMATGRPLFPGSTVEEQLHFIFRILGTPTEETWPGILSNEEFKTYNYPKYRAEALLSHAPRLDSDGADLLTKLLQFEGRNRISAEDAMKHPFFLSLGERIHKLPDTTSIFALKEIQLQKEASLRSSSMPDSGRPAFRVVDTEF
Chain of CASK (O14936 whole entry): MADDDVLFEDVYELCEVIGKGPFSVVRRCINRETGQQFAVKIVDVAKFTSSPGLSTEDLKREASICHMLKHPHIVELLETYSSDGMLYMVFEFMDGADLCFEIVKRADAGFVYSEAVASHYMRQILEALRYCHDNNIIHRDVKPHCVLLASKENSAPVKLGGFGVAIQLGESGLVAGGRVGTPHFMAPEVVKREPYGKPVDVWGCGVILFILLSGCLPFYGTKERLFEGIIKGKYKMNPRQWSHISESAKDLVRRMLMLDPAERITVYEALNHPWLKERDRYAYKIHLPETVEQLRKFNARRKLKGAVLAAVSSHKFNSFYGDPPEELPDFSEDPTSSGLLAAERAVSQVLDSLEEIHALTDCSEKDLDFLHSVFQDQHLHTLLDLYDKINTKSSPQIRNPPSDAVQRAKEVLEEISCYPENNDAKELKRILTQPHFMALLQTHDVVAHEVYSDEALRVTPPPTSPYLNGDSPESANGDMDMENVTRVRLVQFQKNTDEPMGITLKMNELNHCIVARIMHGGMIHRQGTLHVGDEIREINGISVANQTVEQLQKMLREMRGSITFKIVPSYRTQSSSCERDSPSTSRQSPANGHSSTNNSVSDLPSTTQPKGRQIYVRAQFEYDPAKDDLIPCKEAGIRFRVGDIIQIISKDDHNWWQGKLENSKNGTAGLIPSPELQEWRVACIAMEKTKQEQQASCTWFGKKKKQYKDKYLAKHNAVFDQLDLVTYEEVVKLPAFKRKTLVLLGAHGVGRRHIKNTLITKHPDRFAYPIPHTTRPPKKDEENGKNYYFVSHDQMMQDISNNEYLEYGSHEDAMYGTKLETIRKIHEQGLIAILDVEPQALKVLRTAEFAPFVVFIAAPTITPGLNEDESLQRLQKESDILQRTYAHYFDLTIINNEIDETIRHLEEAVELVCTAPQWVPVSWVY

Molecule `C=CC(=O)Nc1cc(-n2c(=O)ccc3cnc4ccc(-n5cccn5)cc4c32)ccc1C` [CHMFL-BTK-11] has a remaining binding at 1 µM (KIT(V559D)) of 100%, a remaining binding at 1 µM (ERN1) of 76% and a remaining binding at 1 µM (PDGFRA) of 100%. The remaining binding at 1 µM (IRAK3) was 98%, the remaining binding at 1 µM (PCTK1) was 100% and the remaining binding at 1 µM [1] was 100%. The remaining binding at 1 µM (CASK) was 86%, the remaining binding at 1 µM (CSNK1G2) was 100% and the remaining binding at 1 µM (PIK4CB) was 100%. It also gave a remaining binding at 1 µM (p38-gamma) of 79%, a remaining binding at 1 µM [2] of 72% and a remaining binding at 1 µM (ASK1) of 90%. For the same molecule, the remaining binding at 1 µM (BRAF) was 93%, the remaining binding at 1 µM (PRKX) was 100% and the remaining binding at 1 µM [3] was 86%. It also gave a remaining binding at 1 µM (CDKL1) of 93%, a remaining binding at 1 µM (LATS1) of 99% and a remaining binding at 1 µM (DRAK2) of 95%. It also gave a remaining binding at 1 µM (FGFR1) of 88%, a remaining binding at 1 µM (PRKG2) of 98% and a remaining binding at 1 µM (MEK3) of 86%. For the same molecule, the remaining binding at 1 µM (FGFR2) was 88%, the remaining binding at 1 µM (ACVR2B) was 95% and the remaining binding at 1 µM (ADCK3) was 96%. It also gave a remaining binding at 1 µM (EGFR) of 88%.
